Laboratory results as given in patent US20240173293A1 (Sanofi, priority 2021, published 2024).
Read-outs that look alike come from different tables or passages of the source. One block for each compound: values may come before it.

Columns and labels:
[1] = Amcenestrant PK parameters at steady state in patients; assay type: in vivo, human; settings: for AUC(0-t) / Cmax / Tmax / concentration at 0 h: human, plasma, oral; for Tmax: read-out: Tmax (median); for concentration at 0 h: read-out: Ctrough (arithmetic mean)
[2] = pooled analysis, 1666 patients treated with palbociclib; cited from earlier work
[3] = cited from earlier work
[4] = cited from earlier work; remark: listed apart in the source
[5] = Published palbociclib exposure data (A5481001, A5481003, A5481008, Ibrance label); assay type: in vivo; settings: human, plasma; A5481001, A5481003, A5481008, N=57; read-out: AUC0-24 h, reference: geometric mean of individual studies weighed by number of subjects (converted)
[6] = amcenestrant 200 mg with palbociclib, steady state Day 21, N=8
[7] = amcenestrant 400 mg monotherapy, steady state, N=13
[8] = amcenestrant 400 mg with palbociclib, steady state Day 21, N=5

SMILES: O=C(O)c1ccc2c(c1)CCCC(c1ccc(Cl)cc1Cl)=C2c1ccc(O[C@H]2CCN(CCCF)C2)cc1 [Amcenestrant, 6-(2,4-dichlorophenyl)-5-[4-[(3S)-1-(3-fluoropropyl)pyrrolidin-3-yl]oxyphenyl]-8,9-dihydro-7H-benzo[7]annulene-2-carboxylic acid]
- CLss/F (arithmetic mean) [1, 6]: 10.7 L/h
- Ctrough [geometric mean] [1, 6]: [215] ng/mL
- CLss/F (arithmetic mean) ([1]; amcenestrant 200 mg with palbociclib, steady state Day 21, N=8, listed as amcenestrant): 10.7 ± 3.38 L/h
- CLss/F (arithmetic mean) [1, 7]: 10.6 L/h
- Ctrough [geometric mean] [1, 7]: [466] ng/mL
- CLss/F (arithmetic mean) ([1]; amcenestrant 400 mg monotherapy, steady state, N=13, listed as amcenestrant): 10.6 ± 4.35 L/h
- systemic clearance higher than after amcenestrant 400 mg QD single agent ([1]; amcenestrant 400 mg with palbociclib, Day 21): 28%
- CLss/F (arithmetic mean) [1, 8]: 13.5 L/h
- Ctrough [geometric mean] [1, 8]: [248] ng/mL
- CLss/F (arithmetic mean) ([1]; amcenestrant 400 mg with palbociclib, steady state Day 21, N=5, listed as amcenestrant): 13.5 ± 5.36 L/h
- AUC(0-t) ([1]; female, 200 mg, amcenestrant 200 mg with palbociclib, steady state Day 21, N=8, read-out: AUC0-24h (arithmetic mean) (converted)): 20600 ng·h/mL
- Cmax ([1]; female, 200 mg, amcenestrant 200 mg with palbociclib, steady state Day 21, N=8, read-out: Cmax (arithmetic mean)): 2060 ng/mL
- Tmax ([1]; female, 200 mg): 4.88 h
- AUC(0-t) ([1]; female, 400 mg, amcenestrant 400 mg with palbociclib, steady state Day 21, N=5, read-out: AUC0-24h (arithmetic mean) (converted)): 33100 ng·h/mL
- AUC(0-t) ([1]; female, 400 mg, amcenestrant 400 mg with palbociclib, steady state Day 21, N=5, read-out: AUC0-24h [geometric mean]): 31400 ng·h/mL
- Cmax ([1]; female, 400 mg, amcenestrant 400 mg with palbociclib, steady state Day 21, N=5, read-out: Cmax (arithmetic mean)): 4350 ng/mL
- Cmax ([1]; female, 400 mg, amcenestrant 400 mg with palbociclib, steady state Day 21, N=5, read-out: Cmax [geometric mean]): 3450 ng/mL
- Tmax ([1]; female, 400 mg): 4 h
- concentration at 0 h ([1]; female, amcenestrant 200 mg with palbociclib, steady state Day 21, N=8): 226 ng/mL
- concentration at 0 h ([1]; female, amcenestrant 400 mg with palbociclib, steady state Day 21, N=5): 280 ng/mL
- AUC(0-t) ([1]; 200 mg, amcenestrant 200 mg with palbociclib, steady state Day 21, N=8, read-out: AUC0-24h [geometric mean]): 19500 ng·h/mL
- Cmax ([1]; 200 mg, amcenestrant 200 mg with palbociclib, steady state Day 21, N=8, read-out: Cmax [geometric mean]): 1940 ng/mL
- AUC(0-t) ([1]; 400 mg, amcenestrant 400 mg monotherapy, steady state, N=13, read-out: AUC0-24h (arithmetic mean) (converted)): 43200 ng·h/mL
- AUC(0-t) ([1]; 400 mg, amcenestrant 400 mg monotherapy, steady state, N=13, read-out: AUC0-24h [geometric mean]): 40400 ng·h/mL
- Cmax ([1]; 400 mg, amcenestrant 400 mg monotherapy, steady state, N=13, read-out: Cmax (arithmetic mean)): 4380 ng/mL
- Cmax ([1]; 400 mg, amcenestrant 400 mg monotherapy, steady state, N=13, read-out: Cmax [geometric mean]): 4220 ng/mL
- concentration at 0 h ([1]; 400 mg, amcenestrant 400 mg monotherapy, steady state, N=13): 630 ng/mL
- Tmax ([1]; 400 mg): 3 h

- AUC(0-t) [5]: 1970 ng·h/mL
SMILES: CC(=O)c1c(C)c2cnc(Nc3ccc(N4CCNCC4)cn3)nc2n(C2CCCC2)c1=O [Palbociclib, 6-acetyl-8-cyclopentyl-5-methyl-2-{[5-(piperazin-1-yl)pyridin-2-yl]amino}pyrido[2,3-d]pyrimidin-7(8H)-one]
- neutrophil count decrease, any grade [2]: 95.2%
- decrease of exposure when combined with a moderate CYP3A inducer (modafinil) ([3]; Ibrance U.S. label): 32%
- Cmax, arithmetic mean (CV %) ([3]; study A5481001, palbociclib monotherapy, steady state, N=4): 97.4 (41%) ng/mL
- Cmax, geometric mean (CV %) ([3]; study A5481003, palbociclib monotherapy, steady state, N=12): 116 (28%) ng/mL
- Cmax, geometric mean (CV %) ([3]; study A5481008, palbociclib with letrozole, steady state, N=41): 110 (35%) ng/mL
- solubility ([4]; Above pH 4): reduces significantly
- solubility ([4]; At or below pH 4): high-solubility compound
